Source: patent publication US20180360040A1, “PESTICIDAL COMPOUNDS AND THEIR USES” (priority 2015, published 2018)

Tests used:
Type in all cases: in vivo
Diabrotica balteata = assay: Example B1: Diabrotica balteata (corn root worm), sprayed maize sprouts; conditions: 96 h, read-out: effect in at least one of the two categories (mortality or growth inhibition)
Procedure: Example B1: Diabrotica balteata (Corn Root Worm)
Maize sprouts placed onto an agar layer in 24-well microtiter plates were treated with aqueous test solutions prepared from 10,000 ppm DMSO stock solutions by spraying. After drying, the plates were infested with L2 larvae (6 to 10 per well). The samples were assessed for mortality and growth inhibition in comparison to untreated samples 4 days after infestation.

Euschistus heros = assay: Example B2: Euschistus heros (neotropical brown stink bug), sprayed soybean leaves; conditions: 120 h, application rate 200 ppm, N2 nymphs, 5 days after infestation, read-out: effect in at least one of the two categories (mortality or growth inhibition)
Procedure: Example B2: Euschistus heros (Neotropical Brown Stink Bug)
Soybean leaves on agar in 24-well microtiter plates were sprayed with aqueous test solutions prepared from 10,000 ppm DMSO stock solutions. After drying the leaves were infested with N2 nymphs. The samples were assessed for mortality and growth inhibition in comparison to untreated samples 5 days after infestation.

Myzus persicae = assay: Example B4: Myzus persicae (green peach aphid), intrinsic activity; conditions: 120 h, test rate 12 ppm, 5 days after infestation
From the text: Example B4: Myzus persicae (Green Peach Aphid): Intrinsic Activity
Test compounds prepared from 10,000 ppm DMSO stock solutions were applied by pipette into 24-well microtiter plates and mixed with sucrose solution. The plates were closed with a stretched Parafilm. A plastic stencil with 24 holes was placed onto the plate and infested pea seedlings were placed directly on the Parafilm. The infested plate was closed with a gel blotting paper and another plastic stencil and then turned upside down. The samples were assessed for mortality 5 days after infestation.

Plutella xylostella = assay: Example B4 (second): Plutella xylostella (diamond back moth), artificial diet; conditions: 120 h, application rate 200 ppm, L2 larvae, 5 days after infestation, read-out: effect in at least one of the two categories (mortality or growth inhibition)
Procedure: Example B4: Plutella xylostella (Diamond Back Moth)
24-well microtiter plates with artificial diet were treated with aqueous test solutions prepared from 10,000 ppm DMSO stock solutions by pipetting. After drying, the plates were infested with L2 larvae (10 to 15 per well). The samples were assessed for mortality and growth inhibition in comparison to untreated samples 5 days after infestation.

Spodoptera littoralis [1] = assay: Example B5: Spodoptera littoralis (Egyptian cotton leaf worm), sprayed cotton leaf discs; conditions: foliar, 72 h, application rate 200 ppm, L1 larvae, 3 days after infestation, read-out: control (mortality, anti-feeding effect, growth inhibition)
Procedure: Example B5: Spodoptera littoralis (Egyptian Cotton Leaf Worm)
Cotton leaf discs were placed onto agar in 24-well microtiter plates and sprayed with aqueous test solutions prepared from 10,000 ppm DMSO stock solutions. After drying the leaf discs were infested with five L1 larvae. The samples were assessed for mortality, anti-feeding effect, and growth inhibition in comparison to untreated samples 3 days after infestation. Control of Spodoptera littoralis by a test sample is given when at least one of the categories mortality, anti-feedant effect, and growth inhibition is higher than the untreated sample.

Spodoptera littoralis [2] = assay: Example B6: Spodoptera littoralis (Egyptian cotton leaf worm), root uptake by lettuce from agar; conditions: 144 h, test rate 12.5 ppm, 6 days after infestation, read-out: effect in at least one of the three categories (mortality, anti-feeding, or growth inhibition)
From the text: Example B6: Spodoptera littoralis (Egyptian Cotton Leaf Worm)
Test compounds were applied by pipette from 10,000 ppm DMSO stock solutions into 24-well plates and mixed with agar. Lettuce seeds were placed onto the agar and the multi well plate was closed by another plate which contained also agar. After 7 days the compound was absorbed by the roots and the lettuce grew into the lid plate. The lettuce leaves were then cut off into the lid plate. Spodoptera eggs were pipetted through a plastic stencil onto a humid gel blotting paper and the lid plate was closed with it. The samples were assessed for mortality, anti-feedant effect and growth inhibition in comparison to untreated samples 6 days after infestation.

Tetranychus urticae = assay: Example B7: Tetranychus urticae (two-spotted spider mite), feeding/contact activity; conditions: 192 h, application rate 200 ppm, mixed population (mobile stages), 8 days after infestation
Procedure: Example B7: Tetranychus urticae (Two-Spotted Spider Mite): Feeding/Contact Activity
Bean leaf discs on agar in 24-well microtiter plates were sprayed with aqueous test solutions prepared from 10,000 ppm DMSO stock solutions. After drying the leaf discs were infested with a mite population of mixed ages. The samples were assessed for mortality on mixed population (mobile stages) 8 days after infestation.

Aedes aegypti = assay: Example B11: insecticide impregnated polymer surfaces (LDPE sheets), Aedes aegypti; conditions: 2% active ingredient in LDPE sheets, after 48 h and/or 24 h
From the text: (§1) Example B11: Evaluation of Insecticide Impregnated Polymer Surfaces
(§2) Preparation of polymeric sheets: Compound P1.17 was impregnated into LDPE (low density polyethylene) by mixing the respective polymer with the compound at high temperatures and the resultant polymeric material was then mould into thin discs or plaques.
(§3) Twenty four hours prior to the relevant assessment intervals, three to five day old non-blood fed adult mosquitoes were taken from the culture and lightly anaesthetised with carbon dioxide. Ten females were selected and placed in a 250 ml plastic cup, retained with a net lid, provided with a 10% sucrose solution soaked in a cotton wool bung and held under culturing environmental conditions.
(§4) After twenty four hours, impregnated polymer sheets (measuring about 150 mm in diameter and about 0.1 mm in thickness) were removed from storage and wrapped around the glazed side of an 11 cm ceramic tile and held in place with an elastic band. The age of the polymer sheets used were either 1-2 weeks or 10 weeks old. A cup of the pre-selected mosquitoes were again lightly anaesthetised with carbon dioxide and transferred from the holding cup to the base of a 9 cm plastic Petri dish. The relevant impregnated polymer sheet was placed over the Petri dish and held in place with an elastic band. Once the mosquitoes had recovered from the anaesthetic, ca. 1 minute, the impregnated polymer sheet was placed on a holding rack, such that treated side was at an angle of 60° to the horizontal.
(§5) After one hour an assessment of mosquito knockdown was made. A mosquito was said to be knocked down if it was unable to right itself once it had fallen over. The mosquitoes were lightly anaesthetised again, and removed from the Petri dish exposure chamber and returned to the holding cups. The mosquitoes were supplied with a 10% sucrose solution soaked in a cotton wool bung and held under culturing environmental conditions. An assessment of mortality was made 24 hours and 48 hours after exposure. A mosquito was said to be dead if it is unable to right itself once it had fallen over.

Anopheles stephensi = assay: Example B11: insecticide impregnated polymer surfaces (LDPE sheets), Anopheles stephensi; conditions: 2% active ingredient in LDPE sheets, after 48 h and/or 24 h
From the text: as §1, §2, §3, §4, §5

SMILES	percent control (mortality or growth inhibition) at 200 ppm (Diabrotica balteata)	mortality at 12 ppm (Myzus persicae)	percent effect (mortality or growth inhibition) at 200 ppm (Plutella xylostella)	mortality at 200 ppm (Spodoptera littoralis [1])	mortality at 200 ppm (Tetranychus urticae)	further results
CN1OC(c2ccc(F)cc2)(C2CC2)N=C1NC(C)(C)C(F)(F)F (stereo not shown) [Compound P1.88, 5-Cyclopropyl-5-(4-fluorophenyl)-2-methyl-N-(2,2,2-trifluoro-1,1-dimethyl-ethyl)-1,2,4-oxadiazol-3-amine]	≥ 80%	≥ 80%	≥ 80%	≥ 80%	≥ 80%	percent effect (mortality or growth inhibition) at 200 ppm (Euschistus heros): ≥ 80%; percent effect (mortality, anti-feeding or growth inhibition) at 12.5 ppm (Spodoptera littoralis [2]): ≥ 80%
CCC1(c2ccccc2)N=C(NC(C)(C)C)N(C)O1 (stereo not shown) [Compound P1.94, N-tert-Butyl-5-ethyl-2-methyl-5-phenyl-1,2,4-oxadiazol-3-amine]	≥ 80%				≥ 80%	
CN1OC(c2ccc(-c3ccc(F)cc3)cc2)(C2CC2)N=C1NC(C)(C)C (stereo not shown) [Compound P1.137, N-tert-butyl-5-cyclopropyl-5-[4-(4-fluorophenyl)phenyl]-2-methyl-1,2,4-oxadiazol-3-amine]	≥ 80%					
CN1OC(c2ccccc2)(C2CC2)N=C1NC(C)(C)C (stereo not shown) [Compound P1.17, N-tert-Butyl-5-cyclopropyl-2-methyl-5-phenyl-1,2,4-oxadiazol-3-amine]	≥ 80%	≥ 80%	≥ 80%	≥ 80%		control of Aedes Aegypti (Aedes aegypti; sheet after 1 week): at least 80%; control of Aedes Aegypti (Aedes aegypti; sheet after 2 weeks): at least 80%; control of Aedes Aegypti (Aedes aegypti; sheet after 10 weeks): at least 80%; control of Anopheles stephensi (Anopheles stephensi; sheet after 1 week): at least 80%; control of Anopheles stephensi (Anopheles stephensi; sheet after 2 weeks): at least 80%; control of Anopheles stephensi (Anopheles stephensi; sheet after 10 weeks): at least 80%
CN1OC(c2ccc(C#N)cc2)(C2CC2)N=C1NC(C)(C)C (stereo not shown) [Compound P1.136, 4-[3-(tert-butylamino)-5-cyclopropyl-2-methyl-1,2,4-oxadiazol-5-yl]benzonitrile]	≥ 80%					
CN1OC(c2ccccc2)(C2CC2)N=C1N(C)C(C)(C)C (stereo not shown) [Compound P1.18, N-tert-Butyl-5-cyclopropyl-N,2-dimethyl-5-phenyl-1,2,4-oxadiazol-3-amine]	≥ 80%					
